The test system of data set [1] is HaCaT. As to the kind of experiment: Antiinflammatory activity against human HaCaT cells assessed as inhibition of TNF-alpha-induced IL-8 protein expression at 5 uM after 6 hrs by ELISA relative to control. The data set is classed as functional. In general terms: ELISA stands for enzyme-linked immunosorbent assay.
In data set [2] the test system is HaCaT. The data set is described as follows: Inhibition of TNF-alpha-induced NFkappaB (unknown origin) transcription in human HaCaT cells transiently transfected with NFkappaB-LUC at 5 uM after 6 hrs by luminescence based spectrophotometric assay. Format: cell-based.
For data set [3], the system named is HaCaT. The data set is described as follows: Cytotoxicity against human HaCaT cells assessed as reduction in cell viability at 5 uM after 24 hrs by MTT assay. The data set is classed as toxicity, cell-based. On the technique in general: Formazan colour is commonly taken as a measure of viable cells.
The nature of data set [4]: Inhibition of TNF-alpha-induced NFkappaB (unknown origin) transcription in human HaCaT cells transiently transfected with NFkappaB-LUC after 6 hrs by luminescence based spectrophotometric assay. The data set is classed as cell-based.
In data set [5] the test system is HaCaT. The data set is described as follows: Antiinflammatory activity against human HaCaT cells assessed as inhibition of TNF-alpha-induced IL-8 protein expression after 6 hrs by ELISA. Format: functional, cell-based.

Activity calls are given as the source filed them. The calls are words filed in the database; no cut-off is given here.

Take `CCCCc1cc(O)c(C/C=C(\C)CCC=C(C)C)c(O)c1C(=O)OC`: the inhibition – broadly, the change of the read-out against control, counted positive when it falls – at 5 µM in data set [1] turned out to be 100%. The inhibition in data set [2] amounted to 100%. Further, the Activity result in data set [3] is “Non-Toxic”. For the same compound, the IC50 – broadly, the point on the concentration scale where inhibition reaches its midpoint – in data set [4] turned out to be 0.6 µM; in data set [5], 0.53 µM.
As for `CCCc1cc(O)c(C/C=C(/C)CCC=C(C)C)c(O)c1`, in data set [1], the inhibition entry is “inactive”. Also, in data set [2], the inhibition entry was “Active”. For the same compound, in data set [3], the Activity result is “Non-Toxic”.
For `CCCc1cc2c3c(c1)O[C@@]1(C)CCC([C@@H]3C1)C(C)(C)O2` (some centres not stated), the inhibition entry in data set [1] and in data set [2] was “inactive” in each case. In addition, the Activity entry in data set [3] is on record as “Non-Toxic”.
Take `CCCCc1cc2c3c(c1)O[C@@]1(C)CCC([C@@H]3C1)C(C)(C)O2` (some centres not stated): the inhibition entry in data set [1] and in data set [2] was “inactive” in each case. For the same compound, the Activity result in data set [3] is on record as “Non-Toxic”.
Turning to `CCCCCc1cc(O)c(C/C=C(\C)CCC=C(C)C)c(O)c1` [CANNABIGEROL], in data set [1], the inhibition at 5 µM is ~40%. Also, the IC50 in data set [4] was 2.51 µM; in data set [5], > 5 µM.
For the compound `CCCCc1cc(O)c(C/C=C(/C)CCC=C(C)C)c(O)c1`, in data set [1], the inhibition at 5 µM was 100%. The inhibition in data set [2] amounted to 100%. In addition, in data set [3], the Activity entry is reported as “Non-Toxic”. The half-inhibitory concentration (IC50) in data set [4] came to 2.8 µM; in data set [5] it was 0.87 µM.
On to `C=C(C)[C@@H]1CCC(C)=C[C@H]1c1c(O)cc(CCCCC)cc1O`, for which, in data set [1], the inhibition result was “inactive”.
For the compound `CCCCc1cc(O)c(C/C=C(\C)CCC=C(C)C)c(O)c1`, the inhibition at 5 µM in data set [1] was 100%. The same compound returned an inhibition in data set [2] of 100%. Also, in data set [3], the Activity result is listed as “Non-Toxic”. The IC50 in data set [4] is 2.36 µM; in data set [5], 0.82 µM.
For `CCCCc1cc2c(c(O)c1C(=O)OC)CC[C@@](C)(CCC=C(C)C)O2`, in data set [1], the inhibition at 5 µM is 100%. Besides, in data set [2], the inhibition entry is “Active”. In data set [3], the Activity result was “Non-Toxic”. Further, the IC50 in data set [4] worked out at 4.23 µM; in data set [5] it was 1.58 µM.
Regarding `CCCc1cc(O)c2c(c1)O[C@](C)(CCC=C(C)C)CC2`, the inhibition result in data set [1] is “inactive”. Further, the inhibition entry in data set [2] is “Active”. The Activity result in data set [3] is recorded as “Non-Toxic”.
Regarding `CCCCc1cc(O)c2c(c1)O[C@](C)(CCC=C(C)C)CC2`, in data set [1], the inhibition at 5 µM was found to be 100%. For the same compound, the inhibition in data set [2] was 100%. Moreover, the Activity result in data set [3] is on record as “Non-Toxic”. The IC50 was found to be 3.11 µM in data set [4] and 1.06 µM in data set [5].
For the compound `CCCc1cc(O)c(C/C=C(\C)CCC=C(C)C)c(O)c1`, the inhibition entry in data set [1] is “inactive”. Also, the inhibition result in data set [2] is “Active”. Also, the Activity entry in data set [3] is listed as “Non-Toxic”.
On the same counts, the results for `CCCCc1cc2c(c(O)c1C(=O)O)CC[C@@](C)(CCC=C(C)C)O2` are “inactive”, “Active” and “Non-Toxic”.

The values are drawn from ChEMBL document CHEMBL5576082, “Minor Cannabinoids as Inhibitors of Skin Inflammation: Chemical Synthesis and Biological Evaluation” (J Nat Prod, 2024).
